Common to all, as to type: cell-based
The test system of assay [1] is HCV 1a RLuc cells (dicistronic genotype 1a H77 replicon, RLuc reporter). The assay is described as follows: microbe, parasite or virus in culture. To be noted: Hepatitis C virus, genotype 1a replicon; read-out: 1a. A digest of the protocol:
(§1)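 Replicon cells stably carrying the listed RLuc-encoding dicistronic replicons were seeded and treated with DMSO serial dilutions of compound (10 mM stocks) diluted into culture medium. After 72 h, cells were lysed and Renilla luciferase activity measured. EC50 was derived by non-linear regression.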

Assay [2] deals with HCV 1b RLuc cells (dicistronic genotype 1b Con1 replicon, RLuc reporter). Put plainly: microbe, parasite or virus in culture. To be noted: Hepatitis C virus, read-out: 1b (nM). The procedure, abridged:
as §1

Assay [3] relates to HCV 2a JFH-1 Rluc cells (dicistronic genotype 2a JFH-1 replicon, RLuc reporter). The assay is described as follows: microbe, parasite or virus in culture. To be noted: Hepatitis C virus, genotype 2a JFH-1 replicon; read-out: 2a JFH. A digest of the protocol:
as §1
(A replicon is a self-replicating genome or part of one, used to study replication in cells.)

For assay [4], the system named is HCV 2b Rluc cells (NS5A chimeric genotype 2a JFH-1 replicon with genotype 2b MD2b-1 NS5A gene, M31 present). The assay is described as follows: microbe, parasite or virus in culture. To be noted: Hepatitis C virus, read-out: 2b. A digest of the protocol: as §1
Assay [5] has as its system HCV 3a RLuc cells (NS5A chimeric genotype 1b Con1 replicon with consensus genotype 3a NS5A gene). The assay is described as follows: microbe, parasite or virus in culture. To be noted: Hepatitis C virus, read-out: 3a, genotype 3a replicon. A digest of the protocol: as §1
The subject of assay [6] is HCV 4a Rluc cells (NS5A chimeric genotype 1b Con1 replicon with genotype 4a NS5A gene). The assay is described as follows: microbe, parasite or virus in culture. As to conditions: Hepatitis C virus, read-out: 4a. A digest of the protocol: as §1
The test system of assay [7] is HCV 2a Rluc cells (NS5A chimeric genotype 2a JFH-1 replicon with genotype 2a J6 strain NS5A gene, M31 present). The assay is described as follows: HCV replicon reporter assay, genotype 2a J6 (M31 present). As to conditions: Hepatitis C virus, read-out: 2a J6. The procedure, abridged:
as §1

Structures are written as SMILES.

Turning to `COC(=O)N[C@H](C(=O)N1CCC[C@H]1c1nc2ccc3cc(-c4ccc5c(ccc6nc([C@@H]7[C@@H]8CC[C@@H](C8)N7C(=O)[C@H](NC(=O)OC)c7ccccc7)[nH]c65)c4)ccc3c2[nH]1)C(C)C` [Example 429], the EC50 was 1 to 999 pM in assay [1]; 0.033 nM in assay [2]; 1 to 999 pM in assay [3]; 1000 to 44000 pM in assay [4]; 1 to 990 pM in assay [5]; 1 to 990 pM in assay [6]. Besides, the EC50 in assay [7] lay in the range of 1000 to 44000 pM.

In the case of `CN(C)C(=O)N[C@@H](C(=O)N1CCC[C@H]1c1ncc(-c2cc3c4c(c2)OCc2cc(-c5cnc([C@@H]6CCCN6C(=O)[C@H](NC(=O)N(C)C)c6ccccc6)[nH]5)cc(c2-4)OC3)[nH]1)c1ccccc1` [Example 431], the EC50 in assay [1] was 1 to 999 pM; in assay [2], 0.436 nM; in assay [3], 1 to 999 pM; in assay [4] it was 1 to 999 pM; in assay [5] it was 1 to 990 pM; in assay [6], 1 to 990 pM. Further, the EC50 in assay [7] is 1 to 999 pM.

On to `COC(=O)N[C@H](C(=O)N1CCC[C@H]1c1nc2ccc3cc(-c4ccc(-c5cnc([C@@H]6CCCN6C(=O)[C@H](NC(=O)OC)c6ccccc6)[nH]5)cc4C#Cc4ccccc4)ccc3c2[nH]1)C(C)C` [Example 439], for which the EC50 was 1 to 999 pM in assay [1]; 0.004 nM in assay [2]; 1 to 999 pM in assay [3]; more than 44000 pM in assay [4]; 1 to 990 pM in assay [5]; 1 to 990 pM in assay [6]. Moreover, the EC50 in assay [7] lay in the range of 1000 to 44000 pM.

As for `COC[C@H]1C[C@@H](c2ncc(-c3ccc(-c4ccc5c(ccc6nc([C@@H]7C[C@H](COC)CN7C(=O)[C@@H](NC(=O)OC)C(C)C)[nH]c65)c4)cc3)[nH]2)N(C(=O)[C@@H](NC(=O)OC)C(C)C)C1` [Example 440], the EC50 in assay [1] is 1 to 999 pM; in assay [2], 0.048 nM; in assay [3], 1 to 999 pM; in assay [4], 1000 to 44000 pM; in assay [5], 1000 to 4990 pM; in assay [6], 1 to 990 pM. Further, the EC50 in assay [7] fell in the range of 1 to 999 pM.

Take `COC[C@H]1C[C@@H](c2ncc(-c3ccc(-c4ccc5c(ccc6nc([C@@H]7CCCN7C(=O)[C@@H](NC(=O)OC)C(C)C)[nH]c65)c4)cc3)[nH]2)N(C(=O)[C@@H](NC(=O)OC)C(C)C)C1` [Example 441]: the EC50 is 1 to 999 pM in assay [1]; 0.03 nM in assay [2]; 1 to 999 pM in assay [3]; more than 44000 pM in assay [4]; 1 to 990 pM in assay [5]; 1 to 990 pM in assay [6]. Further, the EC50 in assay [7] fell in the range of 1000 to 44000 pM.

`COC[C@H]1C[C@@H](c2ncc(-c3ccc(-c4ccc5c(ccc6nc([C@@H]7CCCN7C(=O)[C@H](NC(=O)OC)c7ccccc7)[nH]c65)c4)cc3)[nH]2)N(C(=O)[C@@H](NC(=O)OC)C(C)C)C1` [Example 442]: the EC50 is 1 to 999 pM in assay [1]; 0.029 nM in assay [2]; 1 to 999 pM in assay [3]; 1 to 999 pM in assay [4]; 1 to 990 pM in assay [5]; 1 to 990 pM in assay [6]. The EC50 in assay [7] lay within 1 to 999 pM.

For the compound `O=C(N[C@@H](C(=O)N1CCC[C@H]1c1ncc(-c2cc3c4c(c2)OCc2cc(-c5cnc([C@@H]6CCCN6C(=O)[C@H](NC(=O)C6CC6)c6ccccc6)[nH]5)cc(c2-4)OC3)[nH]1)c1ccccc1)C1CC1` [Example 443], the EC50 was 1 to 999 pM in assay [1]; 0.167 nM in assay [2]; 1 to 999 pM in assay [3]; 1 to 999 pM in assay [4]; 1 to 990 pM in assay [5]; 1 to 990 pM in assay [6]. Moreover, the EC50 in assay [7] lay in the range of 1 to 999 pM.

Regarding `COC1CN(C(C(=O)N2CCC[C@H]2c2ncc(-c3cc4c5c(c3)OCc3cc(-c6cnc([C@@H]7CCCN7C(=O)C(c7ccccc7)N7CC(OC)C7)[nH]6)cc(c3-5)OC4)[nH]2)c2ccccc2)C1` (some centres unmarked) [Example 444], the EC50 in assay [1] was 1000 to 44000 pM; in assay [2], 1.76 nM; in assay [3], 1 to 999 pM; in assay [4], 1000 to 44000 pM; in assay [5], 1 to 990 pM; in assay [6] it was 1000 to 4990 pM. Moreover, in assay [7], the EC50 was in the range of 1000 to 44000 pM.

In the case of `O=C(C(c1ccccc1)N1CCCOCC1)N1CCC[C@H]1c1ncc(-c2cc3c4c(c2)OCc2cc(-c5cnc([C@@H]6CCCN6C(=O)C(c6ccccc6)N6CCCOCC6)[nH]5)cc(c2-4)OC3)[nH]1` (some centres unmarked) [Example 445], the EC50 in assay [1] was 1000 to 44000 pM; in assay [2], 0.336 nM; in assay [3] it was 1 to 999 pM; in assay [4], 1000 to 44000 pM; in assay [5], 1 to 990 pM; in assay [6], 1 to 990 pM. The EC50 in assay [7] fell in the range of 1000 to 44000 pM.

In the case of `CNC(=O)N[C@@H](C(=O)N1CCC[C@H]1c1ncc(-c2cc3c4c(c2)OCc2cc(-c5cnc([C@@H]6CCCN6C(=O)[C@H](NC(=O)NC)c6ccccc6)[nH]5)cc(c2-4)OC3)[nH]1)c1ccccc1` [Example 447], the EC50 is 1000 to 44000 pM in assay [1]; 2.05 nM in assay [2]; 1 to 999 pM in assay [3]; 1 to 999 pM in assay [4]; 1 to 990 pM in assay [5]; 1 to 990 pM in assay [6]. Besides, the EC50 in assay [7] lay within 1 to 999 pM.

With `COCCOC(=O)N[C@@H](C(=O)N1CCC[C@H]1c1ncc(-c2cc3c4c(c2)OCc2cc(-c5cnc([C@@H]6CCCN6C(=O)[C@H](NC(=O)OCCOC)c6ccccc6)[nH]5)cc(c2-4)OC3)[nH]1)c1ccccc1` [Example 448], the EC50 in assay [1] is 1 to 999 pM; in assay [2] it was 0.459 nM; in assay [3] it was 1 to 999 pM; in assay [4], 1 to 999 pM; in assay [5], 1 to 990 pM; in assay [6] it was 1 to 990 pM. The EC50 in assay [7] lay within 1000 to 44000 pM.

In the case of `O=C(N[C@@H](C(=O)N1CCC[C@H]1c1ncc(-c2cc3c4c(c2)OCc2cc(-c5cnc([C@@H]6CCCN6C(=O)[C@H](NC(=O)C6CCC6)c6ccccc6)[nH]5)cc(c2-4)OC3)[nH]1)c1ccccc1)C1CCC1` [Example 449], the EC50 in assay [1] is 1 to 999 pM; in assay [2], 0.139 nM; in assay [3], 1 to 999 pM; in assay [4], 1 to 999 pM; in assay [5] it was 1 to 990 pM; in assay [6] it was 1 to 990 pM. The EC50 in assay [7] fell in the range of 1 to 999 pM.

As to `CCC(=O)N[C@@H](C(=O)N1CCC[C@H]1c1ncc(-c2cc3c4c(c2)OCc2cc(-c5cnc([C@@H]6CCCN6C(=O)[C@H](NC(=O)CC)c6ccccc6)[nH]5)cc(c2-4)OC3)[nH]1)c1ccccc1` [Example 450], the EC50 in assay [1] is 1 to 999 pM; in assay [2] it was 0.427 nM; in assay [3] it was 1 to 999 pM; in assay [4], 1 to 999 pM; in assay [5] it was 1 to 990 pM; in assay [6] it was 1 to 990 pM. For the same compound, the EC50 in assay [7] lay within 1 to 999 pM.

For the compound `COC[C@H]1C[C@@H](c2nc3ccc4cc(-c5ccc6c(ccc7nc([C@@H]8[C@@H]9CC[C@@H](C9)N8C(=O)[C@@H](NC(=O)OC)C(C)C)[nH]c76)c5)ccc4c3[nH]2)N(C(=O)[C@H](NC(=O)OC)c2ccccc2)C1` [Example 451], the EC50 in assay [1] is 1 to 999 pM; in assay [2], 0.07 nM; in assay [3], 1 to 999 pM; in assay [4], 1 to 999 pM; in assay [5], 1 to 990 pM; in assay [6] it was 1 to 990 pM. Moreover, in assay [7], the EC50 lay within 1 to 999 pM.

`COC[C@H]1C[C@@H](c2nc3ccc4cc(-c5ccc6c(ccc7nc([C@@H]8[C@@H]9CC[C@@H](C9)N8C(=O)[C@H](NC(=O)OC)c8ccccc8)[nH]c76)c5)ccc4c3[nH]2)N(C(=O)[C@@H](NC(=O)OC)C(C)C)C1` [Example 452]: the EC50 was 1 to 999 pM in assay [1]; 0.047 nM in assay [2]; 1 to 999 pM in assay [3]; 1000 to 44000 pM in assay [4]; 1 to 990 pM in assay [5]; 1 to 990 pM in assay [6]. Further, the EC50 in assay [7] is 1 to 999 pM.

Consider `COC(=O)N[C@H](C(=O)N1CCC[C@H]1c1nc2ccc3cc(-c4ccc5c(ccc6nc([C@@H]7[C@H]8CC[C@H](C8)N7C(=O)[C@H](NC(=O)C7CC7)c7ccccc7)[nH]c65)c4)ccc3c2[nH]1)C(C)C` [Example 455], for which the EC50 in assay [1] is 1 to 999 pM; in assay [2], 0.029 nM; in assay [3] it was 1 to 999 pM; in assay [4], 1 to 999 pM; in assay [5] it was 1 to 990 pM; in assay [6] it was 1 to 990 pM. In assay [7], the EC50 was 1 to 999 pM.

`COC[C@H]1C[C@@H](c2ncc(-c3ccc(-c4ccc5c(ccc6nc([C@@H]7CCCN7C(=O)[C@@H](NC(=O)OC)C(C)C)[nH]c65)c4)cc3)[nH]2)N(C(=O)[C@H](NC(=O)C2CC2)c2ccccc2)C1` [Example 456]: the EC50 in assay [1] was 1 to 999 pM; in assay [2], 0.04 nM; in assay [3] it was 1 to 999 pM; in assay [4] it was 1 to 999 pM; in assay [5], 1 to 990 pM; in assay [6] it was 1 to 990 pM. For the same compound, the EC50 in assay [7] fell in the range of 1 to 999 pM.

Values taken from patent US10344019B2 (priority 2010, dated 2019).
